Measurements reported in paper PMC7527816, “Molecular basis for the bifunctional Uba4–Urm1 sulfur‐relay system in tRNA thiolation and ubiquitin‐like conjugation” (The EMBO Journal, 2020).
Substitutions are numbered along the chain they refer to. In names and notes the source's numbering stands.

Experiments:
CtUba4-CtUrm1 [1] = biological target: T1, CtUba4-CtUrm1 (Thermochaetoides thermophila, UniProt G0SC54); experiment: GST pull-down of CtUba4 with GST-CtUrm1 (nucleotide-stabilised complex); format: binding; conditions: 1 mM nucleotide, 2 mM MgCl2, pH 6.0, 37 °C
T1 construct: gene uba4; full-length CtUba4 (1-444) plus CtUrm1, both from E. coli, tags TEV-cleaved (GST kept on CtUrm1 in pull-down); with Ubiquitin-related modifier 1

CtUba4 AD = biological target: T2, CtUba4 AD (Thermochaetoides thermophila, UniProt G0SC54); experiment: thermal shift assay (SYPRO Orange); format: binding; conditions: 1 mM AMP, 2 mM MgCl2, 2 mM DTT, pH 7.5
T2 construct: gene uba4; adenylation domain aa 1-290, E. coli, His6-GST tag TEV-cleaved, dimer

CtUba4 (full length) = biological target: T3, CtUba4 (full length) (Thermochaetoides thermophila, UniProt G0SC54); experiment: thermal shift assay (SYPRO Orange); format: binding; conditions: 1 mM AMP, 2 mM MgCl2, 2 mM DTT, pH 7.5
T3 construct: gene uba4; full length aa 1-444, codon-optimised, E. coli BL21(DE3) pRARE, His6 or His6-GST tag TEV-cleaved, homodimer

CtUba4-CtUrm1 [2] = biological target: T1, CtUba4-CtUrm1; experiment: pyrophosphate release (fluorometric kit); Malachite Green phosphate; format: biochemical; conditions: 20 μM ATP, CtUrm1 7.5 μM, 0.5 mM MgCl2, pH 6.0, 37 °C
CtUba4-CtUrm1 [3] = biological target: T4, CtUba4-CtUrm1 (Thermochaetoides thermophila, UniProt G0SC54, N307A/M308A); experiment: as above; format: biochemical; conditions: 20 μM ATP, CtUrm1 7.5 μM, 0.5 mM MgCl2, pH 6.0, 37 °C
T4 construct: gene uba4; full-length CtUba4 (1-444) plus CtUrm1, both from E. coli, tags TEV-cleaved (GST kept on CtUrm1 in pull-down); with Ubiquitin-related modifier 1
T4 sequence (G0SC54 entry or part of it N307A/M308A, one chain of several): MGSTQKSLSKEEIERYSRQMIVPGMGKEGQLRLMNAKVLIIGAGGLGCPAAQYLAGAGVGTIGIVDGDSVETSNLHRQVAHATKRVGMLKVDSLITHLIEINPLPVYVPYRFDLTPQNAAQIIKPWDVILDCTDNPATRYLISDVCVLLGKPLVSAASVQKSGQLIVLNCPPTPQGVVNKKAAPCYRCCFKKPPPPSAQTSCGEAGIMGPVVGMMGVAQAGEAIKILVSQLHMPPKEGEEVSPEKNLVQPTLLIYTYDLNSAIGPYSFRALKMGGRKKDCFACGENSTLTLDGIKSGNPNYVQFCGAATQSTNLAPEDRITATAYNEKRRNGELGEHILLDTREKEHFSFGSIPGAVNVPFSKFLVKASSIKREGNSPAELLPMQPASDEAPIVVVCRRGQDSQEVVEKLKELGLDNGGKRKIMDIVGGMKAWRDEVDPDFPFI

[4] = biological target: T5, ADlinker 1-321 (with CtUrm1) (Thermochaetoides thermophila, UniProt G0SC54); experiment: as above; format: biochemical; conditions: 20 μM ATP, CtUrm1 7.5 μM, 0.5 mM MgCl2, pH 6.0, 37 °C
T5 construct: gene uba4; adenylation domain plus complete linker, aa 1-321, E. coli; assayed with CtUrm1; with Ubiquitin-related modifier 1
T5 sequence (G0SC54 1-321): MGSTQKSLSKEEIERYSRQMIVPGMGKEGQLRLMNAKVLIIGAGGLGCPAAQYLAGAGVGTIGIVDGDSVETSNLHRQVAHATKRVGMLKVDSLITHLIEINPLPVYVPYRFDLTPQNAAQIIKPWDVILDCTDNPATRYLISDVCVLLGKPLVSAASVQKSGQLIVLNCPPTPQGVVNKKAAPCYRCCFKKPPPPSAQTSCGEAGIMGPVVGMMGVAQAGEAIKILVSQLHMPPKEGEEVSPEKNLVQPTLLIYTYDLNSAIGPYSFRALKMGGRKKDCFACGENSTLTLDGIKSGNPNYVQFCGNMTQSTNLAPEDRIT
T5 sequence (G0SE11 1-110 partner): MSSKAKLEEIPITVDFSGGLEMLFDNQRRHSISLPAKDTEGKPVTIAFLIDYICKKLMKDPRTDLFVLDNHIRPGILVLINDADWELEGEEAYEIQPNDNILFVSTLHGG

[5] = biological target: the molecule itself; experiment: crystal structure; apo full-length CtUba4, no nucleotide; 50 mM HEPES pH 6.9-7.0, PEG 4000, 21°C; 2.2 Å
[6] = biological target: the molecule itself; experiment: crystal structure; CtUba4 C202K, CtUrm1 and ATP (1.00:1.25:2.25) incubated in 100 mM MES pH 6.0, 100 mM NaCl, 2 mM MgCl2 at 37°C for 30 min, complex isolated on Superdex 200 Increase; crystals in 0.1 M HEPES pH 7.5, 20% PEG 3350; 3.15 Å
[7] = biological target: the molecule itself; experiment: SEC + SEC-MALS; SEC profiles and static light scattering (RALS/LALS) after Superdex 75 10/300 GL; 1 mg/ml; 20 mM Tris pH 7.5, 150 mM NaCl, 1 mM DTT

Molecule: Nc1ncnc2c1ncn2[C@@H]1O[C@H](COP(=O)(O)OP(=O)(O)NP(=O)(O)O)[C@@H](O)[C@H]1O [AMP-PNP]
- GST pull-down of CtUba4 with GST-CtUrm1 (nucleotide-stabilised complex) (CtUba4-CtUrm1 [1]): complex is stabilized most efficiently in the presence of ATP and AMP‐PNP

Molecule: Nc1ncnc2c1ncn2[C@@H]1O[C@H](COP(=O)(O)O)[C@@H](O)[C@H]1O [AMP]
- melting temperature (CtUba4 AD): AMP increased the thermal stability of full‐length Uba4 and the AD alone
- melting temperature (CtUba4 (full length)): AMP increased the thermal stability of full‐length Uba4 and the AD alone

Molecule: Nc1ncnc2c1ncn2[C@@H]1O[C@H](COP(=O)(O)OP(=O)(O)OP(=O)(O)O)[C@@H](O)[C@H]1O [ATP]
- pyrophosphate release (fluorometric kit); Malachite Green phosphate (CtUba4-CtUrm1 [2]): ATP hydrolysis capacity of CtUba4 WT and mutants in the presence of CtUrm1
- pyrophosphate release (fluorometric kit); Malachite Green phosphate (CtUba4-CtUrm1 [3]): mutations of the linker residues Asn307 and Met308
- pyrophosphate release (fluorometric kit); Malachite Green phosphate [4]: it stimulates the ATP hydrolysis activity of the AD in the presence of Urm1

B1: Chaetomium thermophilum Uba4 (ubiquitin-like protein activator 4), full length, wild type (enzyme, UniProt G0SC54 1-444, looked up)
chain: MGSTQKSLSKEEIERYSRQMIVPGMGKEGQLRLMNAKVLIIGAGGLGCPAAQYLAGAGVGTIGIVDGDSVETSNLHRQVAHATKRVGMLKVDSLITHLIEINPLPVYVPYRFDLTPQNAAQIIKPWDVILDCTDNPATRYLISDVCVLLGKPLVSAASVQKSGQLIVLNCPPTPQGVVNKKAAPCYRCCFKKPPPPSAQTSCGEAGIMGPVVGMMGVAQAGEAIKILVSQLHMPPKEGEEVSPEKNLVQPTLLIYTYDLNSAIGPYSFRALKMGGRKKDCFACGENSTLTLDGIKSGNPNYVQFCGNMTQSTNLAPEDRITATAYNEKRRNGELGEHILLDTREKEHFSFGSIPGAVNVPFSKFLVKASSIKREGNSPAELLPMQPASDEAPIVVVCRRGQDSQEVVEKLKELGLDNGGKRKIMDIVGGMKAWRDEVDPDFPFI
notes: Uba4 of Chaetomium thermophilum, UniProt G0SC54, full length aa 1-444; Expressed from pETM30 (N-terminal His6 and GST) and pETM11 (N-terminal His6); tags cleaved with TEV; Codon-optimised gene; also called CtUba4; CtUba4 FL; source: E. coli BL21(DE3) pRARE, purified (Ni-NTA, TEV cleavage, second Ni-NTA, SEC Superdex 200); not shown: His6, N-terminal, cleaved
- stoichiometry N [5]: 2

B2: CtUba4 C202K, full length (enzyme, Chaetomium thermophilum, UniProt G0SC54 1-444, looked up)
chain: B1 chain with C202K
notes: Uba4 of Chaetomium thermophilum, UniProt G0SC54, full length aa 1-444 with C202K; With Urm1 and ATP the epsilon-amino group of Lys202 forms a non-hydrolysable iso-peptide bond with Gly111 of Urm1; The RHD is present in the crystals but has no density; source: E. coli BL21(DE3) pRARE, purified (Ni-NTA, TEV cleavage, SEC Superdex 200); not shown: His6, N-terminal, cleaved
- stoichiometry N [6]: 2

B3: CtUba4 adenylation domain (1-290) (domain or fragment, Chaetomium thermophilum, UniProt G0SC54 1-290, looked up)
chain: MGSTQKSLSKEEIERYSRQMIVPGMGKEGQLRLMNAKVLIIGAGGLGCPAAQYLAGAGVGTIGIVDGDSVETSNLHRQVAHATKRVGMLKVDSLITHLIEINPLPVYVPYRFDLTPQNAAQIIKPWDVILDCTDNPATRYLISDVCVLLGKPLVSAASVQKSGQLIVLNCPPTPQGVVNKKAAPCYRCCFKKPPPPSAQTSCGEAGIMGPVVGMMGVAQAGEAIKILVSQLHMPPKEGEEVSPEKNLVQPTLLIYTYDLNSAIGPYSFRALKMGGRKKDCFACGENSTLT
notes: Uba4 of Chaetomium thermophilum, UniProt G0SC54, adenylation domain residues 1-290; source: E. coli BL21(DE3) pRARE, purified (Ni-NTA, TEV cleavage, SEC); not shown: His6, N-terminal, cleaved; GST, N-terminal, cleaved
- stoichiometry N [7]: 2

B4: CtUba4 rhodanese-like domain (319-444) (domain or fragment, Chaetomium thermophilum, UniProt G0SC54 319-444, looked up)
chain: RITATAYNEKRRNGELGEHILLDTREKEHFSFGSIPGAVNVPFSKFLVKASSIKREGNSPAELLPMQPASDEAPIVVVCRRGQDSQEVVEKLKELGLDNGGKRKIMDIVGGMKAWRDEVDPDFPFI
notes: Uba4 of Chaetomium thermophilum, UniProt G0SC54, rhodanese-like domain residues 319-444; also called CtUba4 RHD; RHD; source: E. coli BL21(DE3) pRARE, purified (Ni-NTA, TEV cleavage, SEC Superdex 75); not shown: His6, N-terminal, cleaved; GST, N-terminal, cleaved
- stoichiometry N [7]: 2
